This passage reports Activity results from ChEMBL document CHEMBL1150954, “Isolation and synthesis of an alpha-malamic acid derivative from Justicia ghiesbreghtiana” (J Nat Prod, 1998).

The test system of this experiment is Mycobacterium tuberculosis. The experiment is described as follows: Antibacterial activity against Mycobacterium tuberculosis. The class given is functional, organism-based.

Activity calls are given as the source filed them. The calls are words filed in the database; no cut-off is given here.

As to `COc1ccc(NC(=O)[C@@H](O)CC(=O)O)cc1OC`, the result was inactive.
